ChEMBL document CHEMBL1123607, “Synthesis of potential anticancer agents: imidazo[4,5-c]pyridines and imidazo[4,5-b]pyridines” (J Med Chem, 1987)

Columns and labels:
[1] = test system: L1210; assay: Percent increase in life span at 40 mg/kg on a single dose schedule against L1210 leukemia; type: functional; conditions: Mus musculus
[2] = test system: L1210; assay: Mitotic index (MI); type: functional, Mus musculus
[3] = test system: L1210; assay: Inhibition against the proliferation of L1210 leukemia; type: functional, cell-based; conditions: Mus musculus
[4] = Cytotoxicity activity against the KB cell culture at less than 10 uM; type: functional; conditions: Homo sapiens, read-out: ED50 (the source's name)

Question: Which ILS at 40 mg/kg [1] does the source give for `CCOC(=O)Nc1cc(NC(c2ccccc2)c2ccccc2)c2[nH]cnc2n1` here?
Answer: 59%

Question: What about the MI [2] of the same molecule?
Answer: 1.15 µM

Question: What about the IC50 [3] of the same molecule?
Answer: 0.37 µM

Question: With `CCOC(=O)Nc1cc(Nc2ccccc2)c2[nH]cnc2n1` as the molecule, how does the EC50 [4] read?
Answer: 9.5 µM
